The text below walks through data of patent publication US20110138488A1, “DEFICIENCY IN THE HISTONE DEMETHYLASE JHDM2A RESULTS IN IMPAIRED ENERGY EXPENDITURE AND OBESITY” (priority 2008, published 2011).

Experiment [1] deals with PGC-1α promoter. The conditions noted are these: control C2C12 cells, AICAR treatment.
Description: Wild-type and Jhdm2a knock-down C2C12 myotubes with or without AICAR treatment were used for ChIP followed by qPCR. Antibodies against H3K9me1 and H3K9me2 were used in the ChIP assays. Results were normalized to input, and are shown as fold of enrichment relative to that in the wild-type C2C12 cells without AICAR treatment. *p<0.05.
To determine whether PGC-1α is a direct target of JHDM2A, ChIP assays were performed. Ctrl or Jhdm2a KD C2C12 myotubes with or without AICAR treatment were used for ChIP analysis with histone modification-specific antibodies and anti-JHDM2A as described previously (Okada, Nature 450, 119 (2007)).
Experiment [2] deals with primary myotubes. As to the kind of experiment: AICAR-induced respiration (oxygen consumption) in primary myotubes. In kind it is cell-based, mouse. As to conditions: wild-type (Jhdm2a+/+) primary myotubes, 500 μM AICAR for 16 hours. The protocol:
Jhdm2a^+/+ and Jhdm2a^−/− primary myotubes were treated with 500 μM AICAR for 16 hours. Rates of oxygen consumption were normalized to cell counts. *p<0.05. The effect of Jhdm2a deficiency on energy expenditure was analyzed. Systemic energy expenditure includes basal metabolic rate, physical activity, and adaptive thermogenesis (Spiegelman, Cell 104, 531 (2001)). Metabolic studies were performed using TSE LabMaster calorimetry Module (TSE-System) in the Clinical Nutrition Research Unit at the University of North Carolina. For respiration measurements, cultured cells were resuspended in PBS. Oxygen consumption was measured using a Clarke-type electrode (Diamond General) at baseline, and after treatment with 10 μM isoproterenol (ISO) (Wu, Cell 98, 115 (1999)). For normalization of the respiration rates, an aliquot of the cells was lysed and protein concentration was measured. […] The decreased energy expenditure of the Jhdm2a KO mice was not a result of abnormal metabolic hormone secretion. […] Activation of AMPK signaling was determined by treating C2C12 myotubes with 800 μM AICAR (Sigma Aldrich) for 16 hours. […] To gain further support for the involvement of JHDM2A in AMPK-mediated mitochondrial function, the effect of Jhdm2a-deficiency on AMPK activation-mediated respiration in primary myotubes was measured.

For experiment [3], the system named is HIB1B cells. Nature of the experiment: qRT-PCR and western blot of Jhdm2a in HIB1B cells after ISO. The format is cell-based. Here is the method:
Given that cold-induced Ucp1 upregulation is intact in the PPARα-deficient mice (Kersten, et al., J. Clin. Invest. 103:1489 (1999)), the possibility was explored that Jhdm2a directly regulates Ucp1 expression in response to cold exposure. To ascertain that the effect of Jhdm2a on Ucp1 expression was cell-intrinsic, short-hairpin RNA (shRNA)-mediated was performed in the brown adipose cell line HIB1B using lentivirus-based shRNA. To generate a Jhdm2a knock-down HIB1B cell line, undifferentiated cells were infected with a lentiviral virus expressing a shRNA for Jhdm2a or control. The shRNA sequence for Jhdm2a was 5′-GCAGGTGTCACTAGCCTTAAT-3′ (SEQ ID NO:76). The differentiation of HIB1B cells was performed as previously described (Ross, et al., Proc. Natl. Acad. Sci. USA 89:7561 (1992)). […] Importantly, enforced overexpression of human JHDM2A in the knock-down cells partially rescued Ucp1 expression, see FIG. 36B. […] ISO-induced upregulation of Pgcla was also maintained in HIB1B knock-down cells, see FIG. 38.

Experiment [4] concerns Ucp1 enhancer. Nature of the experiment: ChIP analysis at the Ucp1 enhancer in HIB1B cells after ISO treatment. In kind it is cell-based. As to conditions: control HIB1B cells. The source says: The Jhdm2a knock-down-induced increase in H3K9me2 level could be partially rescued by overexpression of JHDM2A coupled with ISO treatment. *P<0.05.
Results are normalized to IgG, and are shown as the fold-enrichment relative to that in the control cells without ISO. *P<0.05.
The possibility that Jhdm2a directly regulates Ucp1 expression was subsequently examined. […] The binding was site-specific as Jhdm2a was not detected within the Ucp1 coding region, see FIG. 39, amplicon B).
In addition to removing the repressive H3K9me2 mark at the Ucp1 enhancer, Jhdm2a could contribute to Ucp1 activation by affecting the recruitment of transcription factors and co-activators. To examine this possibility, the effect of the loss of Jhdm2a on the recruitment of transcription factors (PPARγ, Rxrα and Atf2) and co-activators (Pgc1α, CBP/p300 and Src1) was analyzed. […] However, the enhanced binding by PPARγ and Rxra disappeared in the Jhdm2a knock-down cells, see FIG. 41. Similar results were also observed for the co-activators, see FIG. 42. […] Collectively, the data herein indicate that Jhdm2a contributes to β-adrenergic-stimulated Ucp1 activation by maintaining a low level of H3K9me2 at the Ucp1 enhancer region, and by augmenting the recruitment of PPARγ and Rxrα and their co-activators to the Ucp1 enhancer element.

Regarding `NC(=O)c1ncn([C@@H]2O[C@H](CO)[C@@H](O)[C@H]2O)c1N` [AICAR], the “H3K9me1 and H3K9me2 levels at the PGC-1α promoter” value in experiment [1] was “decreased”. Also, the “respiration (rate of oxygen consumption)” value in experiment [2] is “increased respiration”.
Consider `CC(C)NCC(O)c1ccc(O)c(O)c1` (centres unmarked) [ISO, isoproterenol], for which, in experiment [3], the “Jhdm2a messenger RNA and protein levels” value is given as “upregulated”. Besides, in experiment [4], the “H3K9me2 levels at the Jhdm2a binding site of the Ucp1 enhancer” value is on record as “specifically decreased”; the “binding of PPARγ, Rxrα and Atf2 to the Ucp1 enhancer” value is “increased”.
